# Reference: US20260272907A1, “Therapeutic Tyrosine Kinase Inhibitors for Multiple Sclerosis” (Principia Biopharma Inc., priority 2022, published 2026)
# Columns and labels:
# [1] = system: patients with relapsing multiple sclerosis; assay: Phase 2b trial: incidence of MS relapse during placebo run-out after tolebrutinib; assay type: in vivo, human
# Excerpt: Unscheduled assessment visits for a suspected multiple sclerosis relapse: Participants are instructed to immediately report new neurological symptoms and recurring or worsening of previous symptoms to the Investigator. Any reported symptoms are to be collected. If a participant reports symptoms that may be consistent with relapse, an unscheduled assessment visit with the Investigator is scheduled as soon as possible (whenever possible within 7 days of onset of the symptoms). The Investigator assesses whether the reported episode is consistent with the definition of MS relapse (see Example 1.6B). If it is consistent with the definition of MS relapse or if there is any doubt and relapse cannot be ruled out, an EDSS assessment should be performed. Unscheduled visit activities are detailed in SoA (Table 1), they need to be adapted, if other pathology than MS is cause for it, and additional examinations or laboratory tests are needed for safety follow up and optimal treatment decisions.
# Multiple sclerosis relapse: For the purposes of this study, MS relapse is defined as acute, new neurological symptoms or worsening of previous neurological symptoms with an objective change on neurological examination. Symptoms must: • Be attributable to MS • Last for >24 hours, and • Be present at normal body temperature (i.e., no infection, excessive exercise, or excessively high ambient temperature)
# METHODS: As described in Examples 1 and 2, the 16-week, double-blind, crossover trial randomized 130 patients with RMS (1:1:1:1) to tolebrutinib 5, 15, 30, or 60 mg/day. […]
# OUTCOMES: The outcomes evaluated in this example include measuring the incidence of relapse during 4-week placebo run-in and run-out, the number of new Gd-enhancing T1 lesions detected with magnetic resonance imaging (MRI) at Weeks 4, 8 and 16, the number of new or enlarging T2 lesions measured at Weeks 4, 8 and 16, and the plasma CD19+B-cell count measured in the placebo run-out cohort at baseline, 1 hour after the first dose, then at Week 12 and Week 16 (FIG. 3).
# [2] = system: patients with relapsing multiple sclerosis; assay: Long-term safety extension: number of new Gd-enhancing T1-hyperintense lesions (MRI); assay type: in vivo, human; conditions: for Number of new Gd-enhancing lesions, mean±SD: LTS W96
# Procedure: (§1) In the current open-label extension Part B, all patients receive 60 mg/day. MRI outcomes include numbers of new Gd-enhancing and new/enlarging T2 lesions, T2 lesion volume change from baseline, slowly evolving lesions (SEL), and paramagnetic rim lesions (PRL).
# The Week 0 value is from the last MRI obtained in the dose-finding study if performed within 6 weeks prior to Day 1 of the long-term safety study For some patients the Week 0 value began after a gap period ranging from 0-21 weeks. For patients where the gap period was 0 weeks, the Week 0 value began immediately after the completion of Week 16 of the dose-finding study. For patients where the gap period was greater than 6 weeks a new MRI was obtained prior to Day 1 of the long-term safety study.
# If from Week 16 of the dose-finding study (Cohort 2), it is also included in Week 12. If from Week 16 of the dose-finding study (Cohort 1), it is after 4 weeks placebo run out.
# [3] = system: patients with relapsing multiple sclerosis; assay: Long-term safety extension: slowly evolving lesions (SEL) volume (MRI); assay type: in vivo, human; conditions: W96
# Procedure: as §1
# [4] = system: patients with relapsing multiple sclerosis; assay: Long-term safety extension: paramagnetic rim lesions (PRL) count (MRI); assay type: in vivo, human
# Procedure: as §1
# CYP3A = assay: Preclinical drug metabolism studies: CYP3A; assay type: in vitro ADME
# Excerpt: See Table 12 for the list of drugs not to be used.
# patients with RMS = assay: Ongoing tolebrutinib Phase 3 trials: drug-induced liver injury; assay type: in vivo, human; conditions: ongoing Phase 3 trials
# Excerpt: Drug-induced liver injury has been identified in the ongoing tolebrutinib Phase 3 trials. The reported events occurred between months 2 to 3 after the start of tolebrutinib administration, and the elevation of liver enzymes appears reversible after tolebrutinib discontinuation. Thus, there is a need to mitigate the risk of hepatic injury and provide safe treatment for patients with RMS.
# [5] = system: patients with relapsing multiple sclerosis; assay: Phase 2b dose-finding study: total number of Gd-enhancing T1-hyperintense lesions by brain MRI; conditions: for Count of Gd-enhancing T1-hyperintense lesions, observed mean (SD): 12 weeks of treatment
# Procedure: New T1 Gd-enhancing hyperintense and new and enlarging T2 lesions are evaluated at each visit as per the SoA (Table 1), comparing lesion count to that from the previous MRI scan. Unless specified otherwise, the baseline brain MRI is used as the reference to assess all MRI-derived endpoints. The baseline MRI is the last MRI performed before the randomization visit. Standardized endpoint evaluation is assured by central review of brain MRI scans. Blinded central review is performed for all MRI-derived endpoints. Magnetic resonance imaging reviewers are blinded to treatment assignments and to other participant data.
# As it is reasonable to assume a constant rate of lesion formation over 12 weeks under placebo for total number of Gd-enhancing T1-hyperintense lesions, the same approach as that utilized for the primary endpoint is used, by using the Week 4 data in Cohort 2 as the Week 12 placebo data while accounting for the within-participant correlation. Descriptive summary statistics over time is provided for each of the 4 BTK inhibitor doses.
# For each secondary endpoint, a similar negative binomial model and the MCP-Mod procedure were used. As it is reasonable to assume a constant rate of lesion formation over 12 weeks under placebo treatment, the same approach as that utilized for the primary endpoint was used, i.e., using the Week 4 data in Cohort 2 as the Week 12 placebo data while accounting for within-participant correlation. Descriptive summary statistics over time were provided for each of the 4 BTK inhibitor dose groups.
# [6] = Cohort 1 (all doses), 4-week placebo run-out after 12 weeks of tolebrutinib
# [7] = 5 mg daily, after 12 weeks of treatment
# [8] = 15 mg daily, after 12 weeks of treatment
# [9] = 30 mg daily, after 12 weeks of treatment
# [10] = 60 mg daily, after 12 weeks of treatment
smiles,measurement,setting,value
"C=CC(=O)N1CCC[C@@H](n2c(=O)n(-c3ccc(Oc4ccccc4)cc3)c3c(N)nccc32)C1 [the BTK inhibitor, (R)-1-(1-acryloylpiperidin-3-yl)-4-amino-3-(4-phenoxyphenyl)-1H-imidazo[4,5-c]pyridin-2(3H)-one]",Patients relapse-free during the placebo run-out,[1]; [6],98.4%
same,Relapses during the placebo run-out,[1]; [6],1
same,Rebound disease activity after discontinuation,"[1]; patients with RMS, 4-week placebo run-out, preliminary findings",does not induce rebound disease activity
same,"Number of new GD-enhancing T1-Hyperintense lesions, Mean (SD)","[2]; 5/60 mg, Week 0",1.13 (2.66)
same,"Number of new GD-enhancing T1-Hyperintense lesions, Median","[2]; 5/60 mg, Week 0",0.00
same,"Number of new GD-enhancing T1-Hyperintense lesions, Mean (SD)","[2]; 5/60 mg, Week 12",1.03 (2.57)
same,"Number of new GD-enhancing T1-Hyperintense lesions, Median","[2]; 5/60 mg, Week 12",0.00
same,"Number of new Gd-enhancing lesions, mean±SD",[2]; 5/60-mg arm,0.85±2.5
same,"Number of new GD-enhancing T1-Hyperintense lesions, Mean (SD)","[2]; 15/60 mg, Week 0",1.00 (1.88)
same,"Number of new GD-enhancing T1-Hyperintense lesions, Median","[2]; 15/60 mg, Week 0",0.00
same,"Number of new GD-enhancing T1-Hyperintense lesions, Mean (SD)","[2]; 15/60 mg, Week 12",0.80 (1.49)
same,"Number of new GD-enhancing T1-Hyperintense lesions, Median","[2]; 15/60 mg, Week 12",0.00
same,"Number of new Gd-enhancing lesions, mean±SD",[2]; 15/60-mg arm,0.41±0.91
same,"Number of new GD-enhancing T1-Hyperintense lesions, Mean (SD)","[2]; 30/60 mg, Week 0",1.68 (4.29)
same,"Number of new GD-enhancing T1-Hyperintense lesions, Median","[2]; 30/60 mg, Week 0",0.00
same,"Number of new GD-enhancing T1-Hyperintense lesions, Mean (SD)","[2]; 30/60 mg, Week 12",0.78 (3.36)
same,"Number of new GD-enhancing T1-Hyperintense lesions, Median","[2]; 30/60 mg, Week 12",0.00
same,"Number of new Gd-enhancing lesions, mean±SD",[2]; 30/60-mg arm,0.90±2.16
same,"Number of new GD-enhancing T1-Hyperintense lesions, Mean (SD)","[2]; 60/60 mg, Week 0",0.35 (0.61)
same,"Number of new GD-enhancing T1-Hyperintense lesions, Median","[2]; 60/60 mg, Week 0",0.00
same,"Number of new GD-enhancing T1-Hyperintense lesions, Mean (SD)","[2]; 60/60 mg, Week 12",0.13 (0.43)
same,"Number of new GD-enhancing T1-Hyperintense lesions, Median","[2]; 60/60 mg, Week 12",0.00
same,"Number of new Gd-enhancing lesions, mean±SD",[2]; 60/60-mg arm,0.31±0.66
same,"Number of new GD-enhancing T1-Hyperintense lesions, Mean (SD)","[2]; All (N = 125), Week 0",1.04 (2.72)
same,"Number of new GD-enhancing T1-Hyperintense lesions, Median","[2]; All (N = 125), Week 0",0.00
same,"Number of new GD-enhancing T1-Hyperintense lesions, Mean (SD)","[2]; All (N = 125), Week 12",0.69 (2.27)
same,"Number of new GD-enhancing T1-Hyperintense lesions, Median","[2]; All (N = 125), Week 12",0.00
same,"SEL volume, median (IQR)",[3]; 5/60-mg arm,247.5 (84-420) mm3
same,"SEL volume, median (IQR)",[3]; 15/60-mg arm,258 (66-906) mm3
same,"SEL volume, median (IQR)",[3]; 30/60-mg arm,570 (133.5-1011) mm3
same,"SEL volume, median (IQR)",[3]; 60/60-mg arm,244.5 (87-939) mm3
same,Patients in whom PRL count remained unchanged,"[4]; W96 vs baseline, all arms",18 patients
same,Patients with 1 PRL at baseline but none at W96,[4]; all arms,2 patients
same,Patients with 1-3 additional PRL at W96 vs baseline,[4]; none in the 60/60 mg arm,3 patients
same,Substrate of CYP3A isoenzyme,CYP3A,substrate
same,Course of the elevation of liver enzymes after discontinuation,patients with RMS,reversible
same,Drug-induced liver injury,patients with RMS,identified
same,"Total Gd-enhancing T1-hyperintense lesion count, Mean",[5]; [7],1.77
same,"Total Gd-enhancing T1-hyperintense lesion count, Median",[5]; [7],0.00
same,"Count of Gd-enhancing T1-hyperintense lesions, observed mean (SD)",[5]; 5 mg once daily,1.77 (4.10)
same,Patients with 2 total Gd-enhancing T1-hyperintense lesions,[5]; [8],0 n
same,"Total Gd-enhancing T1-hyperintense lesion count, Mean",[5]; [8],0.87
same,"Total Gd-enhancing T1-hyperintense lesion count, Median",[5]; [8],0.00
same,"Count of Gd-enhancing T1-hyperintense lesions, observed mean (SD)",[5]; 15 mg once daily,0.87 (1.59)
same,"Total Gd-enhancing T1-hyperintense lesion count, Mean",[5]; [9],1.18
same,"Total Gd-enhancing T1-hyperintense lesion count, Median",[5]; [9],0.00
same,"Count of Gd-enhancing T1-hyperintense lesions, observed mean (SD)",[5]; 30 mg once daily,1.18 (4.87)
same,"Total Gd-enhancing T1-hyperintense lesion count, Mean",[5]; [10],0.29
same,"Total Gd-enhancing T1-hyperintense lesion count, Median",[5]; [10],0.00
same,"Count of Gd-enhancing T1-hyperintense lesions, observed mean (SD)",[5]; 60 mg once daily,0.29 (0.86)
same,Participants with no Gd-enhancing T1-hyperintense lesions,"[5]; 60 mg, end of 12 weeks of treatment, 27 of 31 with evaluable MRI",87.1%
same,Relative reduction in total count of Gd-enhancing T1-hyperintense lesions relative to placebo,"[5]; any of the doses tested (5, 15, 30, 60 mg), 12 weeks",No statistically significant relative reduction
